# Literature values as cited in patent EP4052553A1, “AGRICHEMICAL COMPOSITION FOR TREATING SEEDS AND USE THEREOF” (priority 2019, dated 2021).
# Conditions: distilled water at 20°C
row,SMILES,aqueous solubility [ppm]
1,COc1nc(OC)nc(C(=O)c2cccc(F)c2N(C)S(=O)(=O)C(F)F)n1 [triafamone],41
2,COc1ccc(-n2c(=O)c(C(=O)C3C(=O)CCCC3=O)nc3c(Cl)cccc32)cc1 [fenquinotrione],17
3,CCOC(=O)c1cnn(C)c1S(=O)(=O)NC(=O)Nc1nc(OC)cc(OC)n1 [pyrazosulfuron-ethyl],9.8
4,Cc1ccc(C(=O)COc2c(C(=O)c3ccc(Cl)c(C)c3Cl)c(C)nn2C)cc1 [benzofenap],0.12
5,COC(=O)c1c(Cl)nn(C)c1S(=O)(=O)NC(=O)Nc1nc(OC)cc(OC)n1 [halosulfuron-methyl],10.2
6,CO/N=C(/C)c1cccc(Oc2nc(OC)cc(OC)n2)c1C(=O)OC [pyriminobac-methyl],9.3
7,CCCc1ccc2nc(Cl)c(S(=O)(=O)NC(=O)Nc3nc(OC)cc(OC)n3)n2n1 [propyrisulfuron],0.98
8,CCC(CC)Nc1c([N+](=O)[O-])cc(C)c(C)c1[N+](=O)[O-] [Pendimethalin],0.26
9,C#CCN(C)c1c(C#N)cnn1-c1nn2c(c1Cl)CCCC2 [pyraclonil],50.1
10,COc1cc(OC)nc(Sc2cccc3c2C(=O)OC3C)n1 (stereo not drawn) [pyriftalid],1.8
11,COc1cc(OC)nc(NC(=O)NS(=O)(=O)Nc2ccccc2C(=O)C2CC2)n1 [cyclosulfamuron],0.34
12,CC(C)=C1OC(=O)N(c2cc(OC3CCCC3)c(Cl)cc2F)C1=O [pentoxazone],0.22
13,C[C@@H](Oc1ccc(Oc2nc3ccc(Cl)cc3o2)cc1)C(=O)N(C)c1ccccc1F [metamifop],0.69
14,CCCOCCN(C(=O)CCl)c1c(CC)cccc1CC [pretilachlor],74
15,COCc1cccc(C(O)c2nc(OC)cc(OC)n2)c1NS(=O)(=O)C(F)F (stereo not drawn) [pyrimisulfan],87
16,CS(=O)(=O)c1ccc(C(=O)C2=C(Sc3ccccc3)C3CCC(C3)C2=O)c(Cl)c1 (stereo not drawn) [benzobicyclon],0.052
17,CCOC(=O)c1ccccc1S(=O)(=O)NC(=O)Nc1nc(Cl)cc(OC)n1 [chlorimuron-ethyl],8.6
18,COc1cc(OC)nc(Oc2cccc(Oc3nc(OC)cc(OC)n3)c2C(=O)ON=C(c2ccccc2)c2ccccc2)n1 [pyribenzoxim],3.5
